Experiment: mn = molality of the nth substance listed, in mol/kg
Conditions: 100 kPa, Liquid, Vibrating tube method

[Cl-].[Na+] [sodium chloride] + O
mass density [kg/m3]
Conditions	m1 = 0.1	m1 = 0.2	m1 = 0.3	m1 = 0.4	m1 = 0.5	m1 = 0.6
293.15 K	1002.42	1006.57	1010.63	1014.73	1018.78	1022.6
298.15 K	1001.21	1005.31	1009.33	1013.38	–	1021.15
303.15 K	999.767	1003.83	1007.8	1011.82	1015.77	–
308.15 K	998.116	1002.14	1006.08	1010.07	–	1017.71
313.15 K	996.272	1000.27	1004.18	1008.14	1012.04	1015.73

Source: the NIST ThermoML archive (doi:10.1021/acs.jced.6b00458)
